The values below are quoted from earlier work in patent publication US20080015223A1, “Pyrazole Derivatives as Modulators of the 5-Ht2a Serotonin Receptor Useful for the Treatment of Disorders Related Thereto” (Arena Pharmaceuticals, Inc., priority 2004, published 2008).

In data set [1] the test system is rats.
Data set [2] has as its system JC virus.
In data set [3] the test system is spontaneously hypertensive rats.
The conditions of data set [4]: 24 months of treatment, patients.
For data set [5] the following is noted: glaucoma patients.
The subject of data set [6] is rats. This is another data set of the same source.
For data set [7] the following is noted: humans, lumbar disc herniation.

For `CN1CCN2c3ccccc3Cc3ccccc3C2C1` (stereo not drawn) [Mainserin], the DOCA-salt induced hypertension result in data set [1] was “prevent”.
Regarding `O=C(c1ccc(F)cc1)C1CCN(CCn2c(=O)[nH]c3ccccc3c2=O)CC1` [ketanserin], in data set [2], the “JC virus infection of human glial cells” value was “inhibited”. Also, the blood pressure entry in data set [3] is listed as “stabilize”.
Turning to `Cc1nc2sccn2c(=O)c1CCN1CCC(=C(c2ccc(F)cc2)c2ccc(F)cc2)CC1` [ritanserin], the “JC virus infection of human glial cells” value in data set [2] is “inhibited”.
Consider `COc1cccc(CCc2ccccc2OCC(CN(C)C)OC(=O)CCC(=O)O)c1` (stereo not drawn) [sarpogrelate], for which the “urinary albumin excretion level” value in data set [4] is “significantly reduced”. In addition, the IOP result in data set [5] is “significantly lower”. For the same compound, the “analgesic effect on thermal induced pain” value in data set [6] (intraperitoneal administration) is “significant analgesic effect”. In data set [6] (intrathecal or intraperitoneal administration), the “analgesic effect on inflammatory pain” value is “significant analgesic effect”. For the same compound, the “treatment for lower back pain, leg pain and numbness associated with sciatica” value in data set [7] is reported as “effective treatment”.
